Results from the NIST ThermoML archive (doi:10.1016/j.jct.2016.07.005).
Numbers after ± are expanded uncertainties.

Assays:
[1] = refractive index (Na D-line) (dimensionless); xn = mol fraction of the nth substance listed; details: 100 kPa, Liquid, Standard Abbe refractometry, x2 = 0
[2] = xn = mol fraction of the nth substance listed; details: 100 kPa, Liquid, x2 = 0; for viscosity: Concentric cylinders viscometry; for mass density: Vibrating tube method
[3] = 100 kPa, Liquid; for viscosity: Concentric cylinders viscometry; for mass density: Vibrating tube method
[4] = refractive index (Na D-line) (dimensionless); details: 100 kPa, Liquid, Standard Abbe refractometry

Work on `CCCCO` [butan-1-ol] + CN1CCC[C@H]1c1cccnc1 yielded a refractive index ([1]; 293.15 K) of 1.39922 ± 0.00036, a refractive index ([1]; 298.15 K) of 1.39719 ± 0.00036 and a refractive index ([1]; 303.15 K) of 1.39517 ± 0.00036. The refractive index ([1]; 308.15 K) was 1.39311 ± 0.00036, the refractive index ([1]; 313.15 K) was 1.39102 ± 0.00036 and the refractive index ([1]; 318.15 K) was 1.38896 ± 0.00036. The refractive index ([1]; 323.15 K) was 1.38688 ± 0.00036, the viscosity ([2]; 293.15 K) was 2.914 ± 0.06 mPa·s and the mass density ([2]; 293.15 K) was 809.819 ± 1 kg/m3. For the same molecule, the viscosity ([2]; 298.15 K) was 2.564 ± 0.053 mPa·s, the mass density ([2]; 298.15 K) was 805.995 ± 1 kg/m3 and the viscosity ([2]; 303.15 K) was 2.258 ± 0.047 mPa·s. The mass density ([2]; 303.15 K) was 802.148 ± 1 kg/m3, the viscosity ([2]; 308.15 K) was 1.994 ± 0.041 mPa·s and the mass density ([2]; 308.15 K) was 798.276 ± 1 kg/m3. The viscosity ([2]; 313.15 K) was 1.777 ± 0.037 mPa·s, the mass density ([2]; 313.15 K) was 794.372 ± 1 kg/m3 and the viscosity ([2]; 318.15 K) was 1.589 ± 0.033 mPa·s. For the same molecule, the mass density ([2]; 318.15 K) was 790.429 ± 1 kg/m3, the viscosity ([2]; 323.15 K) was 1.372 ± 0.029 mPa·s and the mass density ([2]; 323.15 K) was 786.444 ± 1 kg/m3.
In the case of `CCC(C)O` (stereo not given) [butan-2-ol], the viscosity ([3]; 293.15 K) is reported as 3.76 ± 0.077 mPa·s, the mass density ([3]; 293.15 K) is reported as 807.19 ± 1 kg/m3 and the viscosity ([3]; 298.15 K) is reported as 3.093 ± 0.064 mPa·s. It also gave a mass density ([3]; 298.15 K) of 803.049 ± 1 kg/m3, a viscosity ([3]; 303.15 K) of 2.566 ± 0.053 mPa·s and a mass density ([3]; 303.15 K) of 798.829 ± 1 kg/m3. For the same molecule, the viscosity ([3]; 308.15 K) was 2.149 ± 0.044 mPa·s, the mass density ([3]; 308.15 K) was 794.525 ± 1 kg/m3 and the viscosity ([3]; 313.15 K) was 1.816 ± 0.038 mPa·s. The mass density ([3]; 313.15 K) was 790.127 ± 1 kg/m3, the viscosity ([3]; 318.15 K) was 1.548 ± 0.032 mPa·s and the mass density ([3]; 318.15 K) was 785.636 ± 1 kg/m3. It also gave a viscosity ([3]; 323.15 K) of 1.332 ± 0.028 mPa·s, a mass density ([3]; 323.15 K) of 781.043 ± 1 kg/m3 and a refractive index ([4]; 293.15 K) of 1.39715 ± 0.00036. It also gave a refractive index ([4]; 298.15 K) of 1.39497 ± 0.00036, a refractive index ([4]; 303.15 K) of 1.39274 ± 0.00036 and a refractive index ([4]; 308.15 K) of 1.39045 ± 0.00036. The refractive index ([4]; 313.15 K) was 1.38803 ± 0.00036, the refractive index ([4]; 318.15 K) was 1.38571 ± 0.00036 and the refractive index ([4]; 323.15 K) was 1.38322 ± 0.00036.
`CCC(C)O` (stereo not given) [butan-2-ol] + CN1CCC[C@H]1c1cccnc1 gave a refractive index ([1]; 293.15 K) of 1.39715 ± 0.00036, a refractive index ([1]; 298.15 K) of 1.39497 ± 0.00036 and a refractive index ([1]; 303.15 K) of 1.39274 ± 0.00036. It also gave a refractive index ([1]; 308.15 K) of 1.39045 ± 0.00036, a refractive index ([1]; 313.15 K) of 1.38803 ± 0.00036 and a refractive index ([1]; 318.15 K) of 1.38571 ± 0.00036. It also gave a refractive index ([1]; 323.15 K) of 1.38322 ± 0.00036, a viscosity ([2]; 293.15 K) of 3.76 ± 0.077 mPa·s and a mass density ([2]; 293.15 K) of 807.19 ± 1 kg/m3. It also gave a viscosity ([2]; 298.15 K) of 3.093 ± 0.064 mPa·s, a mass density ([2]; 298.15 K) of 803.049 ± 1 kg/m3 and a viscosity ([2]; 303.15 K) of 2.566 ± 0.053 mPa·s. For the same molecule, the mass density ([2]; 303.15 K) was 798.829 ± 1 kg/m3, the viscosity ([2]; 308.15 K) was 2.149 ± 0.044 mPa·s and the mass density ([2]; 308.15 K) was 794.525 ± 1 kg/m3. For the same molecule, the viscosity ([2]; 313.15 K) was 1.816 ± 0.038 mPa·s, the mass density ([2]; 313.15 K) was 790.127 ± 1 kg/m3 and the viscosity ([2]; 318.15 K) was 1.548 ± 0.032 mPa·s. For the same molecule, the mass density ([2]; 318.15 K) was 785.636 ± 1 kg/m3, the viscosity ([2]; 323.15 K) was 1.332 ± 0.028 mPa·s and the mass density ([2]; 323.15 K) was 781.043 ± 1 kg/m3.
`OCCCO` [propan-1,3-diol] gave a viscosity ([3]; 293.15 K) of 52.31 ± 1.2 mPa·s, a mass density ([3]; 293.15 K) of 1053.03 ± 1.3 kg/m3 and a viscosity ([3]; 298.15 K) of 41.55 ± 0.94 mPa·s. The mass density ([3]; 298.15 K) was 1049.9 ± 1.3 kg/m3, the viscosity ([3]; 303.15 K) was 33.22 ± 0.75 mPa·s and the mass density ([3]; 303.15 K) was 1046.77 ± 1.3 kg/m3. For the same molecule, the viscosity ([3]; 308.15 K) was 26.87 ± 0.61 mPa·s, the mass density ([3]; 308.15 K) was 1043.63 ± 1.3 kg/m3 and the viscosity ([3]; 313.15 K) was 21.85 ± 0.49 mPa·s. The mass density ([3]; 313.15 K) was 1040.49 ± 1.3 kg/m3, the viscosity ([3]; 318.15 K) was 18.12 ± 0.41 mPa·s and the mass density ([3]; 318.15 K) was 1037.33 ± 1.3 kg/m3. It also gave a viscosity ([3]; 323.15 K) of 15.21 ± 0.34 mPa·s, a mass density ([3]; 323.15 K) of 1034.16 ± 1.3 kg/m3 and a refractive index ([4]; 293.15 K) of 1.43918 ± 0.00053. It also gave a refractive index ([4]; 298.15 K) of 1.43783 ± 0.00053, a refractive index ([4]; 303.15 K) of 1.43648 ± 0.00053 and a refractive index ([4]; 308.15 K) of 1.43515 ± 0.00053. For the same molecule, the refractive index ([4]; 313.15 K) was 1.43382 ± 0.00053, the refractive index ([4]; 318.15 K) was 1.4324 ± 0.00053 and the refractive index ([4]; 323.15 K) was 1.43101 ± 0.00053.
`OCCCO` [propan-1,3-diol] + CN1CCC[C@H]1c1cccnc1 showed a refractive index ([1]; 293.15 K) of 1.43918 ± 0.00053, a refractive index ([1]; 298.15 K) of 1.43783 ± 0.00053 and a refractive index ([1]; 303.15 K) of 1.43648 ± 0.00053. For the same molecule, the refractive index ([1]; 308.15 K) was 1.43515 ± 0.00053, the refractive index ([1]; 313.15 K) was 1.43382 ± 0.00053 and the refractive index ([1]; 318.15 K) was 1.4324 ± 0.00053. It also gave a refractive index ([1]; 323.15 K) of 1.43101 ± 0.00053, a viscosity ([2]; 293.15 K) of 52.31 ± 1.2 mPa·s and a mass density ([2]; 293.15 K) of 1053.03 ± 1.3 kg/m3. The viscosity ([2]; 298.15 K) was 41.55 ± 0.94 mPa·s, the mass density ([2]; 298.15 K) was 1049.9 ± 1.3 kg/m3 and the viscosity ([2]; 303.15 K) was 33.22 ± 0.75 mPa·s. For the same molecule, the mass density ([2]; 303.15 K) was 1046.77 ± 1.3 kg/m3, the viscosity ([2]; 308.15 K) was 26.87 ± 0.61 mPa·s and the mass density ([2]; 308.15 K) was 1043.63 ± 1.3 kg/m3. For the same molecule, the viscosity ([2]; 313.15 K) was 21.85 ± 0.49 mPa·s, the mass density ([2]; 313.15 K) was 1040.49 ± 1.3 kg/m3 and the viscosity ([2]; 318.15 K) was 18.12 ± 0.41 mPa·s. For the same molecule, the mass density ([2]; 318.15 K) was 1037.33 ± 1.3 kg/m3, the viscosity ([2]; 323.15 K) was 15.21 ± 0.34 mPa·s and the mass density ([2]; 323.15 K) was 1034.16 ± 1.3 kg/m3.
